Key:
[1] = toxicological studies, no details given; cited from earlier work
[2] = Stability of aloesin in plasma samples (LC-MS/MS quality control samples); assay type: in vitro ADME, rat
Experimental: Prepare 3 concentrations of aloesin quality control samples (500 ng·mL^−1, 50 ng·mL^−1, 3 ng·mL^−1) with blank plasma, and examine the stability under the following conditions.
(1) After the sample is processed, it is placed in the autosampler for 8 hours, and then the sample is injected for analysis;
(2) The sample is processed after 3 freeze-thaw cycles, and the sample is injected for analysis;
(3) The sample is placed at room temperature for 4 hours and then comes out, and the sample is injected for analysis;
(4) The sample is processed after the sample is stored at −20° C. for 15 days, and then the sample is injected for analysis.
The stability inspection is qualified.

- Accuracy ([2]; 3 ng·ml^-1 in plasma, 3 freeze-thaw cycles): 109.60%
- Accuracy ([2]; 3 ng·ml^-1 in plasma, processed sample in autosampler 8 h): 109.20%
- Accuracy ([2]; 3 ng·ml^-1 in plasma, room temperature for 4 hours): 106.18%
- Accuracy ([2]; 3 ng·ml^-1 in plasma, stored at -20° C. for 15 days): 108.00%
- Accuracy ([2]; 50 ng·ml^-1 in plasma, 3 freeze-thaw cycles): 109.40%
- Accuracy ([2]; 50 ng·ml^-1 in plasma, processed sample in autosampler 8 h): 108.20%
- Accuracy ([2]; 50 ng·ml^-1 in plasma, room temperature for 4 hours): 105.20%
- Accuracy ([2]; 50 ng·ml^-1 in plasma, stored at -20° C. for 15 days): 100.14%
- Accuracy ([2]; 500 ng·ml^-1 in plasma, 3 freeze-thaw cycles): 105.20%
- Accuracy ([2]; 500 ng·ml^-1 in plasma, processed sample in autosampler 8 h): 102.60%
- Accuracy ([2]; 500 ng·ml^-1 in plasma, room temperature for 4 hours): 101.80%
- Accuracy ([2]; 500 ng·ml^-1 in plasma, stored at -20° C. for 15 days): 94.66%
Compound: CC(=O)Cc1cc(=O)c2c(C)cc(O)c([C@@H]3O[C@H](CO)[C@@H](O)[C@H](O)[C@H]3O)c2o1 [aloesin]
- toxic side effects [1]: basically no toxic side effects

— patent US12105070B2, “LC-MS/MS method for measurement of Aloesin in rat plasma” (HAINAN MEDICAL UNIVERSITY, priority 2020, dated 2024)
